In patent publication US12172988B2, “Anticancer and antifungal splice modulators” (priority 2021, dated 2024):
“Also recorded” adds a separate entry of the source. Where two headings read alike, the source gives them in different places.

Tested on: HCT116 colorectal carcinoma cells
Test: MTS cell viability / cell growth inhibition assay
Type: cell-based, human
Details: for GI50: Homo sapiens, HCT-116, 72 h
Experimental: With milligram quantities of 1a-1i at hand, we began our studies to evaluate the relative efficacy of each analogue using cell growth inhibition studies in HCT116 colorectal carcinoma cells. As reported in FIG. 3, GI50 values were collected for each analog after a 72 h treatment using the MTS cell viability assay (Table 12). Under these conditions, the natural FD-895 (1), 3S-FD-895 (1a) 17S-FD-895 (1d), 17-methoxy-FD-895 (1e) provided activities of <10 nM.
HCT-116 cells was cultured in McCoy's 5a (Life Technologies) supplemented with 10% fetal bovine serum (FBS), 2 mM L-glutamine, and 100 U mL^−1 of penicillin and 100 μg mL^−1 of streptomycin at 37° C. in an atmosphere of 5% CO2. Compounds were dissolved in DMSO (MilliporeSigma). Cells were treated with 1-1j in media with ≥0.5% DMSO for 4-72 h.
Studies were conducted in […] cell culture plates. HCT-116 plated at 5×10^3 cells/well were cultured for 24 h and then treated with analogs 1-1j for 4-72 h, then washed twice with 100 μL PBS. PBS (100 μL) was added to each well, followed by 20 μL of CellTiter Aqueous One Solution (Promega). After 2 h at 37° C., absorbance readings were taken at 490 nm (test wavelength) and 690 nm (reference wavelength). GI50 values were calculated in Prism (GraphPad) using greater 3 replicates.
Cells were treated with 1 or 1a-1j in media (McCoy's 5a (Life Technologies) supplemented with 10% FBS, 2 mM L-glutamine, and 100 U mL^−1 of penicillin and 100 μg mL^−1 of streptomycin 0.5% DMSO) for 4 h or 24 h. Untreated cells were considered were used as negative control. Total RNA was isolated using mirVana miRNA isolation kit (Life Technologies). A 1 μg sample of RNA was subjected to DNAseI from a TURBO DNA free kit (Life Technologies). The cDNA was prepared by using SuperScript III reverse transcriptase kit (Life Technologies). The amount of unspliced RNA for different genes was determined using Power SYBR Green PCR master mix (Applied Biosystems) by qPCR using specific primers for each gene. qPCR using 2.5 μM of each primer was performed on 5 ng of the obtained cDNA. qPCR conditions were as follows: 95° C. for 10 min for one cycle, then 95° C. for 10 min for one cycle, then 95° C. for 30 s, 55° C. for 60 s, 72° C. for 60 s, for 40 cycles using the MXPro. Quantification cycle (Cq) values were identified for each sample, and then RNA levels were calculated using 2-ΔΔCT method. GAPDH was used as a control for normalization. At least three replicates were conducted for each compound. Namely, all genes explored in this study were evaluated from the same cell cultures. Here, individual cultures were used for each compound explored and at least three replicates were used for each compound. While experimental variation occurred between the different compound treatments, the levels of the different intron retention, exon skipping or RNA expression were collected from the same cellular material. Statistics were calculated using a standard one-way ANOVA; p values were represented so that * signifies p<0.0001. HCT116 were treated with analogs 1-1j ranging from 0.1-5000 nM for 72 hours, then cell viability was measured using the MTS assay. GI50 values and confidence intervals were calculated using GraphPad (Table 12).

| Structure (SMILES) | cell growth inhibitory activity compared to FD-895 (HCT-116 cells) | GI50 (read-out: GI50 value) | GI50 (read-out: GI50 value (text)) | fold less effective compared to 1a or 1d (HCT116 GI50, compared to 1a or 1d) | fold less active (GI50) than 1 (HCT116 cell growth inhibition, compared to 1) |
| --- | --- | --- | --- | --- | --- |
| CC[C@H](OC)[C@@H](C)[C@H]1O[C@@H]1[C@@H](O)[C@H](C)/C=C/C=C(\C)[C@H]1OC(=O)C[C@H](O)CC[C@@](C)(O)[C@@H](OC(C)=O)/C=C/[C@@H]1C [Analog 1d, 17S-FD-895] | retained potency; also recorded: comparable inhibitor of cell growth as 1 | 0.00206 µM | < 0.01 µM |  |  |
| CC[C@H](OC)[C@@H](C)[C@H]1O[C@@H]1[C@@H](O)[C@H](C)/C=C/C=C(\C)[C@H]1OC(=O)C[C@@H](O)CC[C@@](C)(O)[C@@H](OC(C)=O)/C=C/[C@@H]1C [Analog 1g, 3S,17S-FD-895] |  | 0.131 µM | 0.13 µM | 60 fold | 75 fold |
| CC[C@H](OC)[C@@H](C)[C@@H]1O[C@H]1[C@@H](O)[C@H](C)/C=C/C=C(\C)[C@H]1OC(=O)C[C@H](O)CC[C@@](C)(O)[C@@H](OC(C)=O)/C=C/[C@@H]1C [Analog 1i, 17S,18S,19S-FD-895] |  | 0.446 µM | 0.45 µM |  |  |
| CC[C@@H](OC)[C@H](C)[C@H]1O[C@@H]1[C@@H](O)[C@H](C)/C=C/C=C(\C)[C@H]1OC(=O)C[C@H](O)CC[C@@](C)(O)[C@@H](OC(C)=O)/C=C/[C@@H]1C [Analog 1j, 17S,20S,21R-FD-895] |  | 0.262 µM | 0.26 µM |  |  |
